Results: patent publication US20250188030A1, “Biphenyl and Phenylpyridine Compounds” (Pfizer Inc., priority 2023, published 2025)
Like-named read-outs stand apart in the source and are kept apart here.

Experiments:
[1] = tested on: H3K9AC (HT1080 cells); test: H3K9AC Sandwich ELISA Assay in HT1080 cells (KAT2A primary cell-based screening assay); parameters: species or system Human; conditions: Homo sapiens, HT-1080, H3K9AC sandwich ELISA
How it was run: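 Acetylated H3K9 quantified by luminescent sandwich ELISA (total H3 capture, H3K9ac detection) on HCl lysates of HT1080 cells. Cells had 24 h compound exposure at 37 °C, top concentration 10 µM, 10-point 3-fold series, 0.1% DMSO; IC50 from four-parameter fitting.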

[2] = tested on: MM.1S cells; test: MM1.S 10 Day Proliferation Assay (CellTiter-Glo); format: cell-based, Human; conditions: Homo sapiens, MM1.S, 240 h
How it was run: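 MM.1S cells, 500/well in ultra-low-attachment plates, were pre-incubated 16 h, then exposed to a 10-point 1:3 dilution series (top 10 μM final, 0.1% DMSO) for 10 days at 37 °C, with compound-containing medium refreshed at day 5. Viability was read by CellTiter-Glo luminescence; IC50 came from four-parameter fit.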

[3] = target: KAT2A (Homo sapiens (Human), UniProt Q92830); test: KAT2A acetyltransferase biochemical assay (RapidFire mass spectrometry, AcCoA to CoA)
[4] = read-out: KAT2A Ki at 1 μM AcCoA, 5 μM H3 1-21 peptide, 0.5 nM KAT2A, 90-minute reaction
[5] = KAT2A Ki at 1 μM AcCoA, 5 μM H3 1-21 peptide, 0.5 nM KAT2A, 90-minute reaction

KAT2A, sequence (Q92830 whole entry): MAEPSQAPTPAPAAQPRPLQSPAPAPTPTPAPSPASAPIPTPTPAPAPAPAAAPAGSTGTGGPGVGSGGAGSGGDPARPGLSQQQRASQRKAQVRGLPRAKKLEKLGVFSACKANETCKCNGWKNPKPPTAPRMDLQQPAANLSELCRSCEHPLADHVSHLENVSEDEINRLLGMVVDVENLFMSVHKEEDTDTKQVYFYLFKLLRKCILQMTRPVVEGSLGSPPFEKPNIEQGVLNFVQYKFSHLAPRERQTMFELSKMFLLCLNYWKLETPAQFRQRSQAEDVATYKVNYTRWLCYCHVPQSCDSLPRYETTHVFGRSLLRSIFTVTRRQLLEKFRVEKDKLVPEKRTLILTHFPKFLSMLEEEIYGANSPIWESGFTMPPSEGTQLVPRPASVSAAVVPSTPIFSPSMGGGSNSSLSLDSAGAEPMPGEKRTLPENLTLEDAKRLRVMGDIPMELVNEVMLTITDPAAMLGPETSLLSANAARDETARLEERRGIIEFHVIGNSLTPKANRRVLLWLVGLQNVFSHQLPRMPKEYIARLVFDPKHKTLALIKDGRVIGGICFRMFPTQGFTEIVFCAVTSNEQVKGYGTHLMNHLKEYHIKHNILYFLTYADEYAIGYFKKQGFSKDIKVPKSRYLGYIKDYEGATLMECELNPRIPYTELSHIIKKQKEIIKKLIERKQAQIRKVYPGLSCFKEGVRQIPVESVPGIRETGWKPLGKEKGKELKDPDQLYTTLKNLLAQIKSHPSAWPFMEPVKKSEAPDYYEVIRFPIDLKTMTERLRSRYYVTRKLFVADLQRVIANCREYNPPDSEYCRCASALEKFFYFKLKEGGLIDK

SMILES	IC50 [1]	IC50 [2]	Ki [3, 4]	Ki [3, 5]
CCc1ccccc1-c1cc(C(C)(C)C(=O)NS(=O)(=O)C(C)C)ccc1O[C@@H]1CC[C@@H](NC(=O)[C@@]2(F)CNC3(CCC3)C2)C1 [Example C46, (7S)-N-[(1R,3R)-3-({2′-ethyl-5-[2-methyl-1-oxo-1-(propane-2-sulfonamido)propan-2-yl][1,1′-biphenyl]-2-yl}oxy)cyclopentyl]-7-fluoro-5-azaspiro[3.4]octane-7-carboxamide]	7.4 nM	62.9 nM	2.16 nM	
CC(C)c1ccccc1-c1cc(C(C)(C)C(=O)NS(=O)(=O)C(C)C)ccc1O[C@@H]1CC[C@@H](NC(=O)[C@@]2(F)CNC3(CCC3)C2)C1 [Example C47, (7S)-7-fluoro-N-[(1R,3R)-3-({5-[2-methyl-1-oxo-1-(propane-2-sulfonamido)propan-2-yl]-2′-(propan-2-yl)[1,1′-biphenyl]-2-yl}oxy)cyclopentyl]-5-azaspiro[3.4]octane-7-carboxamide]	2.9 nM	14.3 nM	0.33 nM	
CCc1ccccc1-c1cc(CC(=O)NS(=O)(=O)C2(C)CC2)ccc1O[C@@H]1CC[C@@H](NC(=O)[C@@]2(F)CNC3(CCC3)C2)C1 [Example C51, (7S)-N-[(1R,3R)-3-({2′-ethyl-5-[2-(1-methylcyclopropane-1-sulfonamido)-2-oxoethyl][1,1′-biphenyl]-2-yl}oxy)cyclopentyl]-7-fluoro-5-azaspiro[3.4]octane-7-carboxamide]	3 nM	4 nM	0.4 nM	
CC(C)c1ccccc1-c1cc(CC(=O)NS(=O)(=O)C2(C)CC2)ccc1O[C@@H]1CC[C@@H](NC(=O)[C@@]2(F)CNC3(CCC3)C2)C1 [Example C54, (7S)-7-fluoro-N-[(1R,3R)-3-({5-[2-(1-methylcyclopropane-1-sulfonamido)-2-oxoethyl]-2′-(propan-2-yl)[1,1′-biphenyl]-2-yl}oxy)cyclopentyl]-5-azaspiro[3.4]octane-7-carboxamide]	0.9 nM	1.4 nM	0.04 nM	
CC(C)c1ccccc1-c1cc(CC(=O)NS(=O)(=O)C(C)C)ccc1O[C@@H]1CC[C@@H](NC(=O)[C@@]2(F)CNC3(CCC3)C2)C1 [Example C55, (7S)-7-fluoro-N-[(1R,3R)-3-({5-[2-oxo-2-(propane-2-sulfonamido)ethyl]-2′-(propan-2-yl)[1,1′-biphenyl]-2-yl}oxy)cyclopentyl]-5-azaspiro[3.4]octane-7-carboxamide]	0.8 nM	2.5 nM	0.11 nM	
CCc1c(F)cccc1-c1cc(CC(=O)NS(=O)(=O)C(C)C)ccc1O[C@@H]1CC[C@@H](NC(=O)[C@@]2(F)CNC3(CCC3)C2)C1 [Example C58, (7S)-N-[(1R,3R)-3-({2′-ethyl-3′-fluoro-5-[2-oxo-2-(propane-2-sulfonamido)ethyl][1,1′-biphenyl]-2-yl}oxy)cyclopentyl]-7-fluoro-5-azaspiro[3.4]octane-7-carboxamide]	3.4 nM	8.1 nM	0.11 nM	
CC(C)S(=O)(=O)NC(=O)C(C)(C)c1cnc(O[C@@H]2CC[C@@H](NC(=O)[C@@]3(F)CNC4(CCC4)C3)C2)c(-c2cccc(F)c2C2CCC2)c1 [Example C65, (7S)-N-[(1R,3R)-3-({3-(2-cyclobutyl-3-fluorophenyl)-5-[2-methyl-1-oxo-1-(propane-2-sulfonamido)propan-2-yl]pyridin-2-yl}oxy)cyclopentyl]-7-fluoro-5-azaspiro[3.4]octane-7-carboxamide]	3.8 nM	31.8 nM	0.16 nM	
CN1CC(C)(C)C[C@H]1C(=O)N[C@@H]1CC[C@@H](Oc2ccc(C(C)(C)C(=O)O)cc2-c2cccc(F)c2C2CCC2)C1 [Example D1, 2-[2′-cyclobutyl-3′-fluoro-6-({(1R,3R)-3-[(1,4,4-trimethyl-L-prolyl)amino]cyclopentyl}oxy)[1,1′-biphenyl]-3-yl]-2-methylpropanoic acid]	52.8 nM	419 nM	4.05 nM	
CC(C)c1ccccc1-c1cc(CC(=O)O)ccc1O[C@@H]1CC[C@@H](NC(=O)[C@@H]2CC(C)(C)CN2C)C1 [Example D11, [2′-(propan-2-yl)-6-({(1R,3R)-3-[(1,4,4-trimethyl-L-prolyl)amino]cyclopentyl}oxy)[1,1′-biphenyl]-3-yl]acetic acid]	98.5 nM	497 nM	91.9 nM	
CN1CC(C)(C)C[C@H]1C(=O)N[C@@H]1CC[C@@H](Oc2ccc(CC(=O)NS(C)(=O)=O)cc2-c2cccc(F)c2C2CCC2)C1 [Example E2, N-{(1R,3R)-3-[(2′-cyclobutyl-3′-fluoro-5-{2-[(methanesulfonyl)amino]-2-oxoethyl}[1,1′-biphenyl]-2-yl)oxy]cyclopentyl}-1,4,4-trimethyl-L-prolinamide]	10.8 nM	61.4 nM		0.66 nM
[2H]C([2H])([2H])N1CC(C)(C)C[C@H]1C(=O)N[C@@H]1CC[C@@H](Oc2ccc(C(C)(C)C(=O)NS(C)(=O)=O)cc2-c2cccc(F)c2C2CCC2)C1 [Example E5]	4.83 nM	11.9 nM	0.31 nM	
CN1CC(C)(C)C[C@H]1C(=O)N[C@@H]1CC[C@@H](Oc2ccc(C(C)(C)C(=O)NS(C)(=O)=O)cc2-c2ccccc2CC(F)(F)F)C1 [Example E6, N-[(1R,3R)-3-{[5-{1-[(methanesulfonyl)amino]-2-methyl-1-oxopropan-2-yl}-2′-(2,2,2-trifluoroethyl)[1,1′-biphenyl]-2-yl]oxy}cyclopentyl]-1,4,4-trimethyl-L-prolinamide]	99 nM	203 nM	53 nM	
CN1CC(C)(C)C[C@H]1C(=O)N[C@@H]1CC[C@@H](Oc2ccc(C(C)(C)C(=O)NS(C)(=O)=O)cc2-c2cccc(F)c2C2CC2)C1 [Example E7, N-{(1R,3R)-3-[(2′-cyclopropyl-3′-fluoro-5-{1-[(methanesulfonyl)amino]-2-methyl-1-oxopropan-2-yl}[1,1′-biphenyl]-2-yl)oxy]cyclopentyl}-1,4,4-trimethyl-L-prolinamide]	34.2 nM	202 nM	26.6 nM	
CCc1c(F)cccc1-c1cc(C(C)(C)C(=O)NS(C)(=O)=O)ccc1O[C@@H]1CC[C@@H](NC(=O)[C@@H]2CC(C)(C)CN2C)C1 [Example E10, N-{(1R,3R)-3-[(2′-ethyl-3′-fluoro-5-{1-[(methanesulfonyl)amino]-2-methyl-1-oxopropan-2-yl}[1,1′-biphenyl]-2-yl)oxy]cyclopentyl}-1,4,4-trimethyl-L-prolinamide]	21.3 nM	126 nM	26.4 nM	
CN1CC(C)(C)C[C@H]1C(=O)N[C@@H]1CC[C@@H](Oc2ccc(C(C)(C)C(=O)NS(C)(=O)=O)cc2-c2ccc(F)c(F)c2C2CCC2)C1 [Example E11, N-{(1R,3R)-3-[(2′-cyclobutyl-3′,4′-difluoro-5-{1-[(methanesulfonyl)amino]-2-methyl-1-oxopropan-2-yl}[1,1′-biphenyl]-2-yl)oxy]cyclopentyl}-1,4,4-trimethyl-L-prolinamide]	24.2 nM	73.4 nM	1.7 nM	
CN1CC(C)(C)C[C@H]1C(=O)N[C@H]1C[C@H](COc2ccc(CC(=O)O)cc2-c2cccc(F)c2C2CCC2)C1 [Example F1, [2′-cyclobutyl-3′-fluoro-6-({(1S,3r)-3-[(1,4,4-trimethyl-L-prolyl)amino]cyclobutyl}methoxy)[1,1′-biphenyl]-3-yl]acetic acid]	41.5 nM	125 nM	12.9 nM	
CN1CC(C)(C)C[C@H]1C(=O)N[C@H]1C[C@H](COc2ccc(C(C)(C)C(=O)O)cc2-c2cccc(F)c2C2CCC2)C1 [Example F2, 2-[2′-cyclobutyl-3′-fluoro-6-({(1S,3r)-3-[(1,4,4-trimethyl-L-prolyl)amino]cyclobutyl}methoxy)[1,1′-biphenyl]-3-yl]-2-methylpropanoic acid]	71.2 nM	625 nM		9.11 nM
CN1CC(C)(C)C[C@H]1C(=O)N[C@H]1C[C@H](COc2ccc(C(C)(C)C(=O)NS(C)(=O)=O)cc2-c2cccc(F)c2C2CCC2)C1 [Example G2, N-[(1r,3S)-3-{[(2′-cyclobutyl-3′-fluoro-5-{1-[(methanesulfonyl)amino]-2-methyl-1-oxopropan-2-yl}[1,1′-biphenyl]-2-yl)oxy]methyl}cyclobutyl]-1,4,4-trimethyl-L-prolinamide]	9.38 nM	56.9 nM		1.68 nM
Cc1cc(NS(C)(=O)=O)n(-c2ccc(O[C@@H]3CC[C@@H](NC(=O)[C@@H]4CC(C)(C)CN4C)C3)c(-c3cccc(F)c3C3CCC3)c2)n1 [Example L1, N-[(1R,3R)-3-({2′-cyclobutyl-3′-fluoro-5-[5-(methanesulfonamido)-3-methyl-1H-pyrazol-1-yl][1,1′-biphenyl]-2-yl}oxy)cyclopentyl]-1,4,4-trimethyl-L-prolinamide]	7.01 nM	56 nM	0.16 nM	
